Measured values from ChEMBL document CHEMBL5390323, “Novel IRAK4 Inhibitors for Treating Asthma, COPD, Cancer, Autoinflammatory Diseases, and Autoimmune Diseases” (ACS Med Chem Lett, 2023).

Biological target: T1, Interleukin-1 receptor-associated kinase 4 (Homo sapiens, UniProt Q9NWZ3)
T1 sequence (Q9NWZ3 whole entry): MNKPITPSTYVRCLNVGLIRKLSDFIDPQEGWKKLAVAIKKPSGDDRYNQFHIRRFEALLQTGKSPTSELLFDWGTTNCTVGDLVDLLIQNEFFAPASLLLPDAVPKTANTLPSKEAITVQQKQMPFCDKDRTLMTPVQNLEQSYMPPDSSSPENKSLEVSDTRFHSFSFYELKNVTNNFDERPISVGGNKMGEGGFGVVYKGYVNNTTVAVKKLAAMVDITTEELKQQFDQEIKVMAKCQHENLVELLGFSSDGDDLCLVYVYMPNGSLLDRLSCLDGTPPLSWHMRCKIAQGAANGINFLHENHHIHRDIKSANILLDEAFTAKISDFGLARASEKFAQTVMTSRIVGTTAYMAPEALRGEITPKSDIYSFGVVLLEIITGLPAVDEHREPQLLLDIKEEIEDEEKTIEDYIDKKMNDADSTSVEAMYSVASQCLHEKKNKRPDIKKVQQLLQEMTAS
Test: Inhibition of recombinant human full length his-tagged IRAK4 expressed in insect cells using KKARFSRFAGSSPSQSSMVAR as peptide substrate preincubated for 15 mins followed by substrate addition and measured after 2 hrs in presence of ATP by LC-MS/MS analysis

Q: How did the IC50 turn out when `COc1cc2nn([C@H]3CC[C@H](n4ccnc4C(C)O)CC3)cc2cc1C(=O)Nc1cccn(C)c1=O` (stereo partly specified) was run?
A: 0.5 nM
